# Test results published in ChEMBL document CHEMBL4414629, “Macroline-Sarpagine Bisindole Alkaloids with Antiproliferative Activity from Alstonia penangiana” (J Nat Prod, 2019).
# Key:
# [1] = Antiproliferative activity against human KB/S cells assessed as reduction in cell growth after 72 hrs by MTT assay; format: functional, cell-based
# [2] = tested on: KB/VJ300; assay: Antiproliferative activity against human KB/VJ300 cells assessed as reduction in cell growth after 72 hrs by MTT assay; format: functional, cell-based; conditions: KB/VJ300, 72 h
# [3] = tested on: PC-3; assay: Antiproliferative activity against human PC3 cells assessed as reduction in cell growth after 72 hrs by MTT assay; format: functional, cell-based; conditions: PC-3, 72 h
# [4] = tested on: MCF7; assay: Antiproliferative activity against human MCF7 cells assessed as reduction in cell growth after 72 hrs by MTT assay; format: functional, cell-based; conditions: MCF7, 72 h
# [5] = tested on: MDA-MB-231; assay: Antiproliferative activity against human MDA-MB-231 cells assessed as reduction in cell growth after 72 hrs by MTT assay; format: functional, cell-based; conditions: MDA-MB-231, 72 h
# [6] = tested on: HT-29; assay: Antiproliferative activity against human HT-29 cells assessed as reduction in cell growth after 72 hrs by MTT assay; format: functional, cell-based; conditions: HT-29, 72 h
# [7] = tested on: HCT-116; assay: Antiproliferative activity against human HCT116 cells assessed as reduction in cell growth after 72 hrs by MTT assay; format: functional, cell-based; conditions: HCT-116, 72 h
# [8] = tested on: A549; assay: Antiproliferative activity against human A549 cells assessed as reduction in cell growth after 72 hrs by MTT assay; format: functional, cell-based; conditions: A549, 72 h
# [9] = tested on: CCD-18Co; assay: Cytotoxicity against human CCD-18Co cells assessed as reduction in cell growth after 72 hrs by MTT assay; format: cell-based
# [10] = tested on: KB/VJ300; assay: Antiproliferative activity against human vincristine-rsistant KB/VJ300 cells assessed as reduction in cell growth after 72 hrs by MTT assay; format: functional, cell-based; conditions: KB/VJ300, 72 h
# [11] = tested on: LNCaP; assay: Antiproliferative activity against human LNCAP cells assessed as reduction in cell growth after 72 hrs by MTT assay; format: functional, cell-based
# [12] = tested on: MRC5; assay: Cytotoxicity against human MRC5 cells assessed as reduction in cell growth after 72 hrs by MTT assay; format: cell-based; conditions: MRC5, 72 h
SMILES,IC50 [2],IC50 [3],IC50 [4],IC50 [5],IC50 [6],IC50 [7],IC50 [8],IC50 [10],IC50 [11],IC50 [1],IC50 [9],IC50 [12]
C/C=C1/CN2[C@H]3C[C@@H]1[C@@H](CO)[C@@H]2Cc1c3n(C)c2ccc(OC)c(CC3=C(C)OC[C@@H]4[C@H]3C[C@H]3c5c(c6ccccc6n5C)C[C@@H]4N3C)c12,5.9 µM,6.1 µM,2 µM,4.8 µM,0.07 µM,4.2 µM,9 µM,,,2.8 µM,9.7 µM,
C/C=C1/CN2[C@H]3C[C@@H]1[C@@H](CO)[C@@H]2Cc1c3n(C)c2ccc(OC)c(C[C@@H](C(C)=O)[C@@H]3C[C@H]4c5c(c6ccccc6n5C)C[C@@H]([C@@H]3CO)N4C)c12,5.5 µM,> 10 µM,7.7 µM,4.1 µM,0.03 µM,1.5 µM,3.9 µM,8.8 µM,,2.5 µM,4.1 µM,
C/C=C1/CN2[C@H]3C[C@@H]1[C@@H](CO)[C@@H]2Cc1c3n(C)c2cc(C[C@@H](C(C)=O)[C@@H]3C[C@H]4c5c(c6ccccc6n5C)C[C@@H]([C@@H]3CO)N4C)c(OC)cc12,3.6 µM,> 10 µM,8.5 µM,> 10 µM,0.02 µM,2.1 µM,3 µM,4.2 µM,,1.7 µM,5.1 µM,
COc1ccc(CCN(C)CCCC(C#N)(c2ccc(OC)c(OC)c2)C(C)C)cc1OC (stereo not drawn) [VERAPAMIL],,,,,,,,0.4 µM,,,,
CC[C@]1(O)C[C@H]2CN(CCc3c([nH]c4ccccc34)[C@@](C(=O)OC)(c3cc4c(cc3OC)N(C=O)[C@H]3[C@@](O)(C(=O)OC)[C@H](OC(C)=O)[C@]5(CC)C=CCN6CC[C@]43[C@@H]65)C2)C1 [VINCRISTINE],0.8 µM,,,,,,,,,0.0008 µM,,

# Now from value to compound, other results behind:
IC50 [2],IC50 [3],IC50 [4],IC50 [5],IC50 [6],IC50 [7],IC50 [8],IC50 [10],IC50 [11],SMILES,IC50 [1],IC50 [9],IC50 [12]
2.9 µM,3.1 µM,1.3 µM,1.4 µM,0.03 µM,2.9 µM,6.8 µM,,,C/C=C1/CN2[C@H]3C[C@@H]1[C@@H](CO)[C@@H]2Cc1c3n(C)c2cc(C[C@H]3[C@@H]4C[C@H]5c6c(c7ccccc7n6C)C[C@@H]([C@@H]4CO[C@]3(C)OC)N5C)c(OC)cc12,2.4 µM,4.3 µM,
6.7 µM,8.2 µM,4.5 µM,4.5 µM,0.3 µM,> 10 µM,7 µM,0.2 µM,6.2 µM,C/C=C1/CN2[C@H]3C[C@@H]1[C@@H](CO)[C@@H]2Cc1c3n(C)c2cc(C(C)C3=COC[C@@H]4[C@H]3C[C@H]3c5c(c6ccccc6n5C)C[C@@H]4N3C)c(OC)cc12 (stereo partly drawn),0.6 µM,,7.9 µM
> 10 µM,> 10 µM,5.3 µM,4.8 µM,0.07 µM,> 10 µM,> 10 µM,3.9 µM,3.7 µM,C/C=C1/CN2[C@H]3C[C@@H]1[C@@H](CO)[C@@H]2Cc1c3n(C)c2cc(C[C@@H]3[C@@H]4C[C@H]5c6c(c7ccccc7n6C)C[C@@H]([C@@H]4CO[C@]3(C)OC)N5C)c(OC)cc12,1.1 µM,,> 10 µM
